In BindingDB's records for doi:10.1021/jm800245z (Merck Research Laboratories, 2008) one finds IC50 data, which are given here for one compound.

The experiment deals with Gag-Pol polyprotein (Human immunodeficiency virus type 1 group M subtype B (isolate HXB2), UniProt P04585). Nature of the experiment: Microtiter Plate Assay for Strand Transfer. Particulars: pH 7.8; 37 °C. The method, then: The microtiter plate assay for stand transfer was performed with an immobilized donor substrate and a target substrate biotinylated at the 3-prime end of each DNA strand. Integrase was first assembled with immobilized LTR oligonucleotides for 30 min. Inhibitors were added after assembly and washings. For the strand transfer reaction, it was initiated with the addition of the biotinylated target substrate. Strand transfer reaction mixtures were incubated for additional 30 min, and the strand transfer products were detected by using alkaline phosphatase-conjugated avidin (Boehringer Mannheim, Indianapolis, Ind.).

For orientation: IC50 means the point on the concentration scale where inhibition reaches its midpoint. `CNC(=O)c1nc(C(C)(C)NC(=O)C(=O)N(C)C)n(C)c(=O)c1O` [N-{2-[5-hydroxy-1-methyl-4-(methylcarbamoyl)-6-oxo-1,6-dihydropyrimidin-2-yl]propan-2-yl}-N',N'-dimethylethanediamide] displayed an IC50 greater than 5 µM.
